Laboratory results reported in patent US11950925B2, “Managing fluid levels in a patient and associated devices, systems, and methods” (REPRIEVE CARDIOVASCULAR, INC., priority 2019, dated 2024).
Where “and” joins values, the source holds several entries; their conditions need not be identical. Identical values can stand only once.

Legend:
[1] = Fluid overload therapy with diuretic (Lasix) and hydration fluid via the Reprieve Cardiovascular Second Generation System: diuresis, fluid, sodium and weight outcomes; format: in vivo, human
Procedure: (§1) Clinical data associated with embodiments of the present technology were obtained from patient tests conducted at the Tbilisi Heart and Vascular Center in Tbilisi, Georgia. 15 patients underwent fluid therapy in which diuretic(s) and hydration fluid were administered via the Reprieve Cardiovascular™ Second Generation System according to the methods described herein (“treatment group”). As described below, data obtained from the tests indicate that the net fluid loss and net sodium loss levels achieved represent a significant improvement over conventional methods for treating fluid overload conditions, and generally indicate that embodiments of the present technology produce improved diuresis and renal safety.
Table 1 below indicates total urine output, net fluid loss (not including intake fluid), net fluid loss (including intake fluid), net sodium balance, and average diuretic (Lasix) dosage rate for each patient in the treatment group, as measured across a therapy timespan. […] Additionally, the average therapy timespan for the treatment group was 31 hours, whereas the average therapy timespan for standard of care therapy in the literature is approximately 5 days. […] Over the 30 days, none of the patients in the treatment group regained the weight that lost during therapy or were readmitted for additional treatment.
As also shown in Table 1, the average net sodium balance for all patients in the treatment group decreased by nearly 800 millimoles (mmol) over the therapy timespan. When normalized over a 24-hour period, the average and median net sodium balance was −14 grams (g) and −15 g respectively.

[2] = human, in vivo
Procedure: as §1
Estimated glomerular filtration rate (eGFR) is a measure of kidney function and stage of kidney disease, and is based on patient factors including blood creatinine and a patient's age, body size, and gender.
Blood pressure measurements of the patients in the treatment group serve as another indication that the fluid therapy was well received by the patients. For example, the average mean arterial pressure (MAP) of patients dropped from 90.1 mmHg to 88.2 mmHg at the time of patient discharge, and then to 87.2 mmHg after 30 days. Additionally, average systolic pressure of the patients dropped from 121 mmHg to 119 mmHg at the time of patient discharge, and then to 117 mmHg after 30 days.

[3] = average of 15 treatment group patients, average therapy timespan 31 h
[4] = individual patient, over that patient's therapy timespan, Lasix plus hydration fluid
[5] = normalized over a 24-hour period

NS(=O)(=O)c1cc(C(=O)O)c(NCc2ccco2)cc1Cl [Lasix, Furosemide]
decrease of average net sodium balance ([1]; all treatment group patients, over the therapy timespan): ~800 mmol | Net Fluid Loss (including oral fluid intake), average [1, 3]: −5,919 ml | Net Fluid Loss (not including oral fluid intake), average [1, 3]: −6,948 ml | Total Urine, average [1, 3]: 12,744 ml | Net Fluid Loss (including oral fluid intake) [1, 4]: −4,868 ml and −4,247 ml and −2,232 ml and −10,787 ml and −1,021 ml and −6,276 ml and −5,625 ml and −3,636 ml and −10,299 ml and −3,724 ml and −9,156 ml and −6,583 ml and −6,186 ml and −10,301 ml and −3,844 ml | Net Fluid Loss (not including oral fluid intake) [1, 4]: −6,001 ml and −4,590 ml and −2,993 ml and −11,913 ml and −2,003 ml and −8,306 ml and −6,941 ml and −3,953 ml and −12,269 ml and −4,364 ml and −9,995 ml and −7,888 ml and −7,018 ml and −11,333 ml and −4,704 ml | Total Urine [1, 4]: 14,158 ml and 11,456 ml and 6,329 ml and 19,728 ml and 3,726 ml and 12,966 ml and 12,179 ml and 6,496 ml and 20,184 ml and 8,328 ml and 17,784 ml and 14,629 ml and 12,930 ml and 21,155 ml and 9,162 ml | average net fluid loss [1, 5]: approximately 5.4 L | average net sodium balance [1, 5]: -14 g | median net sodium balance [1, 5]: -15 g | increase in net fluid loss relative to control group ([1]; treatment group vs conventional therapy (diuretic, no replacement hydration fluid), normalized 24-hour period): over 200% | average weight loss ([1]; treatment group, after 30 days): 5.7 kg | average weight loss ([1]; treatment group, at the time of patient discharge): 6.8 kg | average net fluid loss (not including oral fluid intake) ([1]; treatment group, over an average therapy timespan of 31 hours): ~7 L | patients who regained the weight lost during therapy or were readmitted for additional treatment ([1]; treatment group, over the 30 days): none | average decrease of eGFR [2]: 1.6 | average increase in creatinine [2]: 0.11 mg/dL | tolerability of the fluid therapy [2]: generally well tolerated
